The results in this text go back to patent US7837757B2, “Enhanced abscisic acid and fertilizer performance” (Valent BioSciences Corporation, priority 2007, dated 2010).

The experiment concerns tomato leaf transpiration. The experiment is described as follows: tomato leaf transpiration inhibition (porometer, normalized to water-sprayed plants). It counts as in vivo, Tomato (variety: Rutgers).

Values joined by “and” are separate entries in the source; they are usually repeats but may differ in a detail not shown here. Equal values may be shown once. Where a name gives a salt, the structure may show the parent alone.

With `CC1=CC(=O)CC(C)(C)[C@@]1(O)/C=C/C(C)=C\C(=O)O` [ABA ammonium salt, Ammonium Salt of (S)-(+)-Abscisic Acid], under “in vivo”, the “Transpiration rate (% of control)” value was 57 % of control and 67 % of control and 78 % of control and 76 % of control and 88 % of control; the “Transpiration rate (% of control), Average” value is 68 % of control and 81 % of control.

As for `NC(N)=O` [Urea, urea], the “Transpiration rate (% of control)” value reads like this: (1 mM urea alone, foliar, 1 day after treatment) 103 % of control; (1 mM urea alone, foliar, 2 days after treatment) 98 % of control; (1 mM urea alone, foliar, 3 days after treatment) 98 % of control; (1 mM urea alone, foliar, 4 days after treatment) 100 % of control; (10 mM urea alone, foliar, 1 day after treatment) 101 % of control; (10 mM urea alone, foliar, 2 days after treatment) 103 % of control. Besides, the “Transpiration rate (% of control)” value reads like this: (10 mM urea alone, foliar, 3 days after treatment) 106 % of control; (10 mM urea alone, foliar, 4 days after treatment) 101 % of control; (100 mM urea alone, foliar, 1 day after treatment) 102 % of control; (100 mM urea alone, foliar, 2 days after treatment) 102 % of control; (100 mM urea alone, foliar, 3 days after treatment) 107 % of control; (100 mM urea alone, foliar, 4 days after treatment) 102 % of control. For the same molecule, the “effect on tomato leaf transpiration (in words)” value (fertilizer or salt alone at 1, 10 or 100 mM, foliar) is “did not reduce tomato leaf transpiration”.

For “(S)-5-(1-hydroxy-2,6,6,-trimethyl-4-oxo-2-cyclohexen-1-yl)-3-methyl-(2Z,4E)-pentadienoic acid [ABA, reference compound]”, the “Transpiration rate (% of control), Average” value (in vivo) was 69 % of control and 78 % of control.

With `[Ca+2].[Cl-].[Cl-]` [CaCl2, calcium chloride], for the setting “in vivo”, the “Transpiration rate (% of control)” value is 97 % of control and 101 % of control and 98 % of control; the “effect on tomato leaf transpiration (in words)” value is on record as “did not affect tomato leaf transpiration”.
